# pIC50: −log10 of the molar value. Structures can show the parent of a compound that is named as a salt.
# What was measured:
# Experiment in all cases: cells
# D-502MG = format: functional, cell-based, Homo sapiens; details: Homo sapiens, D-502MG
# Description: SANGER: Inhibition of human D-502MG cell growth in a cell viability assay.
# DEL = format: functional, cell-based, Homo sapiens; details: Homo sapiens, DEL;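 further: growth inhibition of the human DEL cell line, read out with a cell viability assay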
# Description: SANGER: Inhibition of human DEL cell growth in a cell viability assay.
# DMS-114 = format: functional, cell-based, Homo sapiens; details: Homo sapiens, DMS-114
# DOHH-2 = format: functional, cell-based, Homo sapiens; details: Homo sapiens, DOHH-2;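 further: growth inhibition of human DOHH-2 cells, read out with a cell viability assay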
# Description: SANGER: Inhibition of human DOHH-2 cell growth in a cell viability assay.
# EM-2 = format: functional, cell-based, Homo sapiens; details: Homo sapiens, EM-2;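 further: growth inhibition of EM-2 cells, read out with a cell viability assay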
# Description: SANGER: Inhibition of human EM-2 cell growth in a cell viability assay.
# ES3 = format: functional, cell-based, Homo sapiens; details: Homo sapiens, ES3;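 further: growth inhibition of ES3 cells, read out with a cell viability assay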
# Description: SANGER: Inhibition of human ES3 cell growth in a cell viability assay.
# ETK-1 = format: functional, cell-based, Homo sapiens; details: Homo sapiens, ETK-1;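 further: growth inhibition of human ETK-1 cells, read out with a cell viability assay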
# Description: SANGER: Inhibition of human ETK-1 cell growth in a cell viability assay.
# EW-11 = format: functional, cell-based, Homo sapiens; details: Homo sapiens, EW-11;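 further: growth inhibition of human EW-11 cells, measured with a cell viability assay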
# Description: SANGER: Inhibition of human EW-11 cell growth in a cell viability assay.
# EW-13 = format: functional, cell-based, Homo sapiens; details: Homo sapiens, EW-13;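 further: growth inhibition of EW-13 cells, read out with a cell viability assay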
# Description: SANGER: Inhibition of human EW-13 cell growth in a cell viability assay.
# EW-3 = format: functional, cell-based, Homo sapiens; details: Homo sapiens, EW-3;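 further: cell viability assay read-out, IC50 reflects inhibition of growth of the EW-3 cells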
# Description: SANGER: Inhibition of human EW-3 cell growth in a cell viability assay.
# HCC 2998 = format: functional, cell-based, Homo sapiens; details: Homo sapiens, HCC 2998;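 further: growth inhibition of human HCC2998 cells, measured with a cell viability read-out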
# Description: SANGER: Inhibition of human HCC2998 cell growth in a cell viability assay.
# HCE-T = format: functional, cell-based, Homo sapiens; details: Homo sapiens, HCE-T;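 further: cell viability assay read-out, reporting inhibition of HCE-T cell growth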
# Description: SANGER: Inhibition of human HCE-T cell growth in a cell viability assay.
# HH = format: functional, cell-based, Homo sapiens; details: Homo sapiens, HH
# Description: SANGER: Inhibition of human HH cell growth in a cell viability assay.
# IST-SL1 = format: functional, cell-based, Homo sapiens; details: Homo sapiens, IST-SL1;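 further: growth inhibition of human IST-SL1 cells, read out with a cell viability assay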
# Description: SANGER: Inhibition of human IST-SL1 cell growth in a cell viability assay.
# JVM-2 = format: functional, cell-based, Homo sapiens; details: Homo sapiens, JVM-2;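 further: growth inhibition of JVM-2 cells determined by a cell viability assay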
# Description: SANGER: Inhibition of human JVM-2 cell growth in a cell viability assay.
# JVM-3 = format: functional, cell-based, Homo sapiens; details: Homo sapiens, JVM-3;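 further: growth inhibition of human JVM-3 cells, read out with a cell viability assay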
# Description: SANGER: Inhibition of human JVM-3 cell growth in a cell viability assay.
# K5 = format: functional, cell-based, Homo sapiens; details: Homo sapiens, K5
# Description: SANGER: Inhibition of human K5 cell growth in a cell viability assay.
# KALS-1 = format: functional, cell-based, Homo sapiens; details: Homo sapiens, KALS-1;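 further: growth inhibition of KALS-1 cells, determined with a cell viability assay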
# Description: SANGER: Inhibition of human KALS-1 cell growth in a cell viability assay.
# KARPAS-45 = format: functional, cell-based, Homo sapiens; details: Homo sapiens, KARPAS-45;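 further: inhibition of cell line growth, read out through a viability assay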
# Description: SANGER: Inhibition of human KARPAS-45 cell growth in a cell viability assay.
# KGN = format: functional, cell-based, Homo sapiens; details: Homo sapiens, KGN;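 further: growth inhibition of KGN cells, read out with a cell viability assay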
# Description: SANGER: Inhibition of human KGN cell growth in a cell viability assay.
# KNS-42 = format: functional, cell-based, Homo sapiens; details: Homo sapiens, KNS-42;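 further: growth inhibition of KNS-42 cells, read out with a cell viability assay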
# Description: SANGER: Inhibition of human KNS-42 cell growth in a cell viability assay.
# LAMA-84 = format: functional, cell-based, Homo sapiens; details: Homo sapiens, LAMA-84;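 further: growth inhibition of LAMA-84 cells, read out with a cell viability assay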
# Description: SANGER: Inhibition of human LAMA-84 cell growth in a cell viability assay.
# LB2518-MEL = format: functional, cell-based, Homo sapiens; details: Homo sapiens, LB2518-MEL;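 further: growth inhibition of human LB2518-MEL cells, measured with a cell viability assay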
# Description: SANGER: Inhibition of human LB2518-MEL cell growth in a cell viability assay.
# LB771-HNC = format: functional, cell-based, Homo sapiens; details: Homo sapiens, LB771-HNC;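 further: growth inhibition of LB771-HNC human cells, read out with a cell viability assay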
# Description: SANGER: Inhibition of human LB771-HNC cell growth in a cell viability assay.
# LB831-BLC = format: functional, cell-based, Homo sapiens; details: Homo sapiens, LB831-BLC;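 further: growth inhibition of LB831-BLC cells, read out with a cell viability assay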
# Description: SANGER: Inhibition of human LB831-BLC cell growth in a cell viability assay.
# LS-411N = format: functional, cell-based, Homo sapiens; details: Homo sapiens, LS-411N
# LS-513 = format: functional, cell-based, Homo sapiens; details: Homo sapiens, LS-513
# Description: SANGER: Inhibition of human LS-513 cell growth in a cell viability assay.
# MFM-223 = format: functional, cell-based, Homo sapiens; details: Homo sapiens, MFM-223
# Description: SANGER: Inhibition of human MFM-223 cell growth in a cell viability assay.
# MN-60 = format: functional, cell-based, Homo sapiens; details: Homo sapiens, MN-60;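 further: growth inhibition of the MN-60 cell line, determined with a cell viability assay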
# Description: SANGER: Inhibition of human MN-60 cell growth in a cell viability assay.
# MS-1 = format: functional, cell-based, Homo sapiens; details: Homo sapiens, MS-1
# Description: SANGER: Inhibition of human MS-1 cell growth in a cell viability assay.
# MV4-11 = format: functional, cell-based, Homo sapiens, MV-4-11; details: Homo sapiens, MV4-11;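 further: cell viability readout measuring growth inhibition of human MV-4-11 cells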
# Description: SANGER: Inhibition of human MV-4-11 cell growth in a cell viability assay.
# NCI-H1355 = format: functional, cell-based, Homo sapiens; details: Homo sapiens, NCI-H1355;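 further: growth inhibition of human NCI-H1355 cells, read out by a cell viability assay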
# Description: SANGER: Inhibition of human NCI-H1355 cell growth in a cell viability assay.
# NCI-H526 = format: functional, cell-based, Homo sapiens; details: Homo sapiens, NCI-H526;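 further: growth inhibition of the human NCI-H526 cell line, measured by a cell viability assay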
# Description: SANGER: Inhibition of human NCI-H526 cell growth in a cell viability assay.
# NCI-N87 = format: functional, cell-based, Homo sapiens; details: Homo sapiens, NCI-N87;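 further: growth inhibition of human NCI-N87 cells, read out with a cell viability assay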
# Description: SANGER: Inhibition of human NCI-N87 cell growth in a cell viability assay.
# NMC-G1 = format: functional, cell-based, Homo sapiens; details: Homo sapiens, NMC-G1;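 further: growth inhibition of the NMC-G1 cell line, measured with a cell viability read-out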
# Description: SANGER: Inhibition of human NMC-G1 cell growth in a cell viability assay.
# OMC-1 = format: functional, cell-based, Homo sapiens; details: Homo sapiens, OMC-1;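 further: growth inhibition of the OMC-1 cell line, measured by a cell viability assay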
# Description: SANGER: Inhibition of human OMC-1 cell growth in a cell viability assay.
# P30-OHK = format: functional, cell-based, Homo sapiens; details: Homo sapiens, P30-OHK;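 further: growth inhibition of the P30-OHK cell line, read out with a cell viability assay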
# Description: SANGER: Inhibition of human P30-OHK cell growth in a cell viability assay.
# RH-1 = format: functional, cell-based, Homo sapiens; details: Homo sapiens, RH-1;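 further: growth inhibition of human RH-1 cells, read out with a cell viability assay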
# Description: SANGER: Inhibition of human RH-1 cell growth in a cell viability assay.
# RPMI-8226 = format: functional, cell-based, Homo sapiens; details: Homo sapiens, RPMI-8226
# Description: SANGER: Inhibition of human RPMI-8226 cell growth in a cell viability assay.
# SH-4 = format: functional, cell-based, Homo sapiens; details: Homo sapiens, SH-4;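 further: growth inhibition of SH-4 cells, read out with a cell viability assay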
# Description: SANGER: Inhibition of human SH-4 cell growth in a cell viability assay.
# SK-N-DZ = format: functional, cell-based, Homo sapiens; details: Homo sapiens, SK-N-DZ;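 further: growth inhibition of the cancer cell line, read out through a viability assay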
# Description: SANGER: Inhibition of human SK-N-DZ cell growth in a cell viability assay.
# SK-NEP-1 = format: functional, cell-based, Homo sapiens; details: Homo sapiens, SK-NEP-1;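 further: growth inhibition of human SK-NEP-1 cells, read out by a cell viability assay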
# Description: SANGER: Inhibition of human SK-NEP-1 cell growth in a cell viability assay.
# SNU-C2B = format: functional, cell-based, Homo sapiens; details: Homo sapiens, SNU-C2B;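 further: cell viability readout used to measure compound-driven suppression of SNU-C2B cell proliferation, IC50 marking half-maximal growth inhibition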
# Description: SANGER: Inhibition of human SNU-C2B cell growth in a cell viability assay.
# ALL-PO = format: functional, cell-based, Homo sapiens; details: Homo sapiens, ALL-PO;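 further: growth inhibition of ALL-PO cells, read out by a cell viability assay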
# Description: SANGER: Inhibition of human ALL-PO cell growth in a cell viability assay.
# ATN-1 = format: functional, cell-based, Homo sapiens; details: Homo sapiens, ATN-1;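 further: growth inhibition of human ATN-1 cells, read out with a cell viability assay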
# Description: SANGER: Inhibition of human ATN-1 cell growth in a cell viability assay.
# BV-173 = format: functional, cell-based, Homo sapiens; details: Homo sapiens, BV-173
# Description: SANGER: Inhibition of human BV-173 cell growth in a cell viability assay.
# C2BBe1 = format: functional, cell-based, Homo sapiens; details: Homo sapiens, C2BBe1;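 further: growth inhibition of C2BBe1 cells, read out through a viability assay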
# Description: SANGER: Inhibition of human C2BBe1 cell growth in a cell viability assay.
# CAS-1 = format: functional, cell-based, Homo sapiens; details: Homo sapiens, CAS-1;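 further: growth inhibition of CAS-1 cells, measured with a cell viability assay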
# Description: SANGER: Inhibition of human CAS-1 cell growth in a cell viability assay.
compound,measurement,setting,value
CCC/C=C/C=C/C(=O)O[C@H]1/C(=C/C(=O)OC)C[C@H]2C[C@H]([C@@H](C)O)OC(=O)C[C@H](O)C[C@@H]3C[C@H](OC(C)=O)C(C)(C)[C@](O)(C[C@@H]4C/C(=C/C(=O)OC)C[C@H](/C=C/C(C)(C)[C@]1(O)O2)O4)O3 [BRYOSTATIN 1],pIC50,D-502MG,< 8.10
same,pIC50,DEL,< 8.10
same,pIC50,DMS-114,< 8.10
same,pIC50,DOHH-2,< 8.10
same,pIC50,EM-2,< 8.10
same,pIC50,ES3,< 8.10
same,pIC50,ETK-1,< 8.10
same,pIC50,EW-11,< 8.10
same,pIC50,EW-13,< 8.10
same,pIC50,EW-3,< 8.10
same,pIC50,HCC 2998,< 8.10
same,pIC50,HCE-T,< 8.10
same,pIC50,HH,< 8.10
same,pIC50,IST-SL1,< 8.10
same,pIC50,JVM-2,< 8.10
same,pIC50,JVM-3,< 8.10
same,pIC50,K5,< 8.10
same,pIC50,KALS-1,< 8.10
same,pIC50,KARPAS-45,< 8.10
same,pIC50,KGN,< 8.10
same,pIC50,KNS-42,< 8.10
same,pIC50,LAMA-84,< 8.10
same,pIC50,LB2518-MEL,< 8.10
same,pIC50,LB771-HNC,< 8.10
same,pIC50,LB831-BLC,< 8.10
same,pIC50,LS-411N,< 8.10
same,pIC50,LS-513,< 8.10
same,pIC50,MFM-223,< 8.10
same,pIC50,MN-60,< 8.10
same,pIC50,MS-1,< 8.10
same,pIC50,MV4-11,< 8.10
same,pIC50,NCI-H1355,< 8.10
same,pIC50,NCI-H526,< 8.10
same,pIC50,NCI-N87,< 8.10
same,pIC50,NMC-G1,< 8.10
same,pIC50,OMC-1,< 8.10
same,pIC50,P30-OHK,< 8.10
same,pIC50,RH-1,< 8.10
same,pIC50,RPMI-8226,< 8.10
same,pIC50,SH-4,< 8.10
same,pIC50,SK-N-DZ,< 8.10
same,pIC50,SK-NEP-1,< 8.10
same,pIC50,SNU-C2B,< 8.10
same,pIC50,ALL-PO,< 8.10
same,pIC50,ATN-1,< 8.10
same,pIC50,BV-173,< 8.10
same,pIC50,C2BBe1,< 8.10
same,pIC50,CAS-1,< 8.10
COC1=CC(c2cc3ccccc3[nH]2)=N/C1=C\c1[nH]c(C)cc1C [OBATOCLAX MESYLATE],pIC50,D-502MG,5.20
same,pIC50,DEL,7.08
same,pIC50,DMS-114,5.90
same,pIC50,DOHH-2,> 7.20
same,pIC50,EM-2,5.44
same,pIC50,ES3,6.56
same,pIC50,ETK-1,7.25
same,pIC50,EW-11,5.29
same,pIC50,EW-13,7.36
same,pIC50,EW-3,5.47
same,pIC50,HCC 2998,> 7.20
same,pIC50,HCE-T,6.90
same,pIC50,HH,6.15
same,pIC50,IST-SL1,5.18
same,pIC50,JVM-2,5.40
same,pIC50,JVM-3,< 4.80
same,pIC50,K5,6.27
same,pIC50,KALS-1,6.22
same,pIC50,KARPAS-45,> 7.20
same,pIC50,KGN,6.58
same,pIC50,KNS-42,6.40
same,pIC50,LAMA-84,5.59
same,pIC50,LB2518-MEL,6.63
same,pIC50,LB771-HNC,6.99
same,pIC50,LB831-BLC,6.35
same,pIC50,LS-411N,6.84
same,pIC50,LS-513,< 4.80
same,pIC50,MFM-223,5.47
same,pIC50,MN-60,7.00
same,pIC50,MS-1,5.89
same,pIC50,MV4-11,6.75
same,pIC50,NCI-H1355,6.82
same,pIC50,NCI-H526,5.58
same,pIC50,NCI-N87,5.36
same,pIC50,NMC-G1,6.50
same,pIC50,OMC-1,6.14
same,pIC50,P30-OHK,6.62
same,pIC50,RH-1,6.65
same,pIC50,RPMI-8226,6.50
same,pIC50,SH-4,> 7.20
same,pIC50,SK-N-DZ,6.07
same,pIC50,SK-NEP-1,5.74
same,pIC50,SNU-C2B,6.06
same,pIC50,ALL-PO,6.62
same,pIC50,ATN-1,6.78
same,pIC50,BV-173,5.74
same,pIC50,C2BBe1,5.62
same,pIC50,CAS-1,5.96

# From ChEMBL document CHEMBL1201861, “Genomics of Drug Sensitity in Cancer screening data, Wellcome Trust Sanger Institute”
